# Laboratory results taken from publication doi:10.1101/2023.12.19.571805v1 (biorxiv, 2023).
# *1 amine or outer side, *2 acyl side, *3 side chain or, on linkers, in order; H or OH if unused. Where a SMILES comes first, the peptide text is derived from it. Bridges are numbered along the chain shown (N, C = ends). Roman numbers before positions name the chains, in order. [ ]: non-standard residue; d: D form. Actinocin(9to1) = Cc1c2oc3c(C)ccc(C(=O)[*:1])c3nc-2c(C(=O)[*:2])c(N)c1=O; NMeV = CN[C@H](C(=O)O)C(C)C; Sar = CNCC(=O)O
# Biological target: T1, PhoR (PhoR-GFP) (Mycobacterium tuberculosis, UniProt P71815)
# T1 sequence (P71815 181-485 limits assumed): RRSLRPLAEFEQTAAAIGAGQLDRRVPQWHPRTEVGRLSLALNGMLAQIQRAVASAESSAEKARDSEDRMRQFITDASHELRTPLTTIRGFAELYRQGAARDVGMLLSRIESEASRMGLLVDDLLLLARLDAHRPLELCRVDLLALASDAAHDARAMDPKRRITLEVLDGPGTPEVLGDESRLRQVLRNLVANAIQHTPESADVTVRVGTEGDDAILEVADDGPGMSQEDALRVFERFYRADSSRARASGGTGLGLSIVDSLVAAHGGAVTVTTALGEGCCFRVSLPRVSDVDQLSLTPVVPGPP
# Assay: radioactive dot-blot autophosphorylation assay
# Assay type: biochemical
# Conditions: read-out: % inhibition at 10 μM
compound,measurement,value
"Cc1c2oc3c(C)ccc(C(=O)N[C@@H]4C(=O)N[C@H](C(C)C)C(=O)N5CCC[C@H]5C(=O)N(C)CC(=O)N(C)[C@@H](C(C)C)C(=O)O[C@@H]4C)c3nc-2c(C(=O)N[C@@H]2C(=O)N[C@H](C(C)C)C(=O)N3CCC[C@H]3C(=O)N(C)CC(=O)N(C)[C@@H](C(C)C)C(=O)O[C@@H]2C)c(N)c1=O [Actinomycin D] (I: T[dV]P[Sar][NMeV] / II: T[dV]P[Sar][NMeV]; ester I:1-I:C, II:1-II:C; linker I:N-II:N via Actinocin(9to1))",inhibition at 10 µM,> 50%
